Results on 21 molecules are retold here after PubChem BioAssay AID256 (DTP/NCI, 2004).

The assay concerns CD2F1 mice, L1210 leukemia ip, survival T/C. As to the kind of experiment: NCI In Vivo Anticancer Drug Screen. Data for tumor model L1210 Leukemia (intraperitoneal) in CD2F1 (CDF1) mice. The following applies: higher = longer survival. The procedure, abridged: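 Antitumor effect is scored in animals hosting a serially transplanted tumor. Values compare compound-dosed animals against vehicle-only controls as a simple quotient.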

Where [1] appears, read: endpoint: mean survival time, dose: 100.0 mg/kg/injection, schedule: Q04DX002 (ip), vehicle: saline with Tween-80.
Where [2] appears, read: endpoint: mean survival time, dose: 200.0 mg/kg/injection, schedule: Q04DX002 (ip), vehicle: saline with Tween-80.
[3] abbreviates: endpoint: mean survival time, dose: 400.0 mg/kg/injection, schedule: Q04DX002 (ip), vehicle: saline with Tween-80.
Setting [4] is: endpoint: mean survival time, dose: 100.0 mg/kg/injection, schedule: Q04DX003 (ip), vehicle: saline with Tween-80.
The mark [5] stands for this setting: endpoint: mean survival time, dose: 200.0 mg/kg/injection, schedule: Q04DX003 (ip), vehicle: saline with Tween-80.
Setting [6] is: endpoint: mean survival time, dose: 400.0 mg/kg/injection, schedule: Q04DX003 (ip), vehicle: saline with Tween-80.
Where [7] appears, read: endpoint: mean survival time, dose: 50.0 mg/kg/injection, schedule: Q01DX009 (ip), vehicle: Klucel (hydroxypropylcellulose) (HPC).
Where [8] appears, read: endpoint: mean survival time, dose: 100.0 mg/kg/injection, schedule: Q01DX009 (ip), vehicle: Klucel (hydroxypropylcellulose) (HPC).
Setting [9] is: endpoint: mean survival time, dose: 100.0 mg/kg/injection, schedule: Q01DX009 (ip), vehicle: saline with Tween-80.
Where [10] appears, read: endpoint: mean survival time, dose: 200.0 mg/kg/injection, schedule: Q01DX009 (ip), vehicle: saline with Tween-80.
The mark [11] stands for this setting: endpoint: mean survival time, dose: 400.0 mg/kg/injection, schedule: Q01DX009 (ip), vehicle: saline with Tween-80.

Several values for one entry are separate records, joined by “and”; a condition that tells them apart may be missing. Equal values may be shown once. Toxic doses and inconclusive results are not listed.

Regarding `Nc1cc2c(c[n+](CCO)c3ccccc23)c2ccccc12`, the T/C reads like this: (endpoint: mean survival time, dose: 12.5 mg/kg/injection, schedule: Q04DX003 (ip), vehicle: water) 103 % of control; (endpoint: mean survival time, dose: 25.0 mg/kg/injection, schedule: Q04DX003 (ip), vehicle: water) 104 % of control; (endpoint: mean survival time, dose: 50.0 mg/kg/injection, schedule: Q04DX003 (ip), vehicle: water) 110 % of control; (endpoint: mean survival time, dose: 100.0 mg/kg/injection, schedule: Q04DX003 (ip), vehicle: water) 120 % of control; (endpoint: mean survival time, dose: 200.0 mg/kg/injection, schedule: Q04DX003 (ip), vehicle: water) 120 % of control.

Turning to `O=[N+]([O-])c1ccc(OC(=S)c2ccccc2)cc1`, the T/C runs as follows: under setting [1], 96 % of control; under setting [2], 96 % of control.

For `O=C=N/C=C/NC(=O)Nc1cccc(Cl)c1`, the T/C was 104 % of control under setting [1], 93 % of control under setting [2] and 101 % of control under setting [3].

Turning to `Cc1c2ccccc2c(CSCCC(N)C(=O)O)c2ccccc12` (configuration not stated), the T/C is 96 % of control under setting [4], 93 % of control under setting [5] and 90 % of control under setting [6].

Regarding `CC(C)(C(=O)c1ccccc1)C(OC(=O)c1ccccc1)c1ccccc1` (configuration not stated), the T/C is, setting by setting: (endpoint: mean survival time, dose: 100.0 mg/kg/injection, schedule: Q01DX001 (ip), vehicle: saline with Tween-80) 106 % of control; (endpoint: mean survival time, dose: 200.0 mg/kg/injection, schedule: Q01DX001 (ip), vehicle: saline with Tween-80) 98 % of control; (endpoint: mean survival time, dose: 400.0 mg/kg/injection, schedule: Q01DX001 (ip), vehicle: saline with Tween-80) 104 % of control.

Take `Nc1nnc(C(F)(F)F)s1`: the T/C was 101 % of control (endpoint: mean survival time, dose: 100.0 mg/kg/injection, schedule: Q04DX002 (ip), vehicle: Klucel (hydroxypropylcellulose) (HPC)); 101 % of control (endpoint: mean survival time, dose: 200.0 mg/kg/injection, schedule: Q04DX002 (ip), vehicle: Klucel (hydroxypropylcellulose) (HPC)); 108 % of control (endpoint: mean survival time, dose: 400.0 mg/kg/injection, schedule: Q04DX002 (ip), vehicle: Klucel (hydroxypropylcellulose) (HPC)).

For `O=NNc1cccnc1`, the T/C by setting is: (endpoint: median survival time, dose: 6.25 mg/kg/injection, schedule: Q01DX009 (ip), vehicle: water) 96 % of control; (endpoint: median survival time, dose: 12.5 mg/kg/injection, schedule: Q01DX009 (ip), vehicle: water) 99 % of control; (endpoint: median survival time, dose: 25.0 mg/kg/injection, schedule: Q01DX009 (ip), vehicle: water) 99 % of control.

For `CNC(=S)NNc1ccc(Cl)cc1`, the T/C was 96 % of control (endpoint: mean survival time, dose: 12.5 mg/kg/injection, schedule: Q01DX009 (ip), vehicle: other); 94 % of control (endpoint: mean survival time, dose: 25.0 mg/kg/injection, schedule: Q01DX009 (ip), vehicle: other); 93 % of control (endpoint: mean survival time, dose: 50.0 mg/kg/injection, schedule: Q01DX009 (ip), vehicle: other); 104 % of control (endpoint: mean survival time, dose: 100.0 mg/kg/injection, schedule: Q01DX009 (ip), vehicle: other).

On to `COc1ccc(NC(=O)Oc2cccnc2)c(Cl)c1`, for which the T/C is 100 % of control under setting [7] and 104 % of control under setting [8].

Take `CC(C)c1ccccc1NC1=NCCO1`: the T/C (endpoint: mean survival time, dose: 100.0 mg/kg/injection, schedule: Q04DX003 (ip), vehicle: Klucel (hydroxypropylcellulose) (HPC)) was 103 % of control and the T/C (endpoint: mean survival time, dose: 200.0 mg/kg/injection, schedule: Q04DX003 (ip), vehicle: Klucel (hydroxypropylcellulose) (HPC)) was 90 % of control.

Take `Nc1cccc2scnc12`: the T/C is 104 % of control under setting [9] and 96 % of control under setting [10].

As for `Cc1ccc(S(=O)(=O)N/N=C/c2ccccc2)cc1`, the T/C reads like this: under setting [7], 95 % of control; under setting [8], 98 % of control; (endpoint: mean survival time, dose: 200.0 mg/kg/injection, schedule: Q01DX009 (ip), vehicle: Klucel (hydroxypropylcellulose) (HPC)) 101 % of control; (endpoint: mean survival time, dose: 400.0 mg/kg/injection, schedule: Q01DX009 (ip), vehicle: Klucel (hydroxypropylcellulose) (HPC)) 91 % of control.

As for `N.N.N.N.O=C(O)C1OCCOCCOC(C(=O)O)C(C(=O)O)OCCOCCOC1C(=O)O.[Pt+2].[Pt+2]` (configuration not stated), the T/C is, setting by setting: (endpoint: median survival time, dose: 0.39 mg/kg/injection, schedule: Q04DX003 (ip), vehicle: saline with Tween-80) 100 % of control; (endpoint: median survival time, dose: 0.62 mg/kg/injection, schedule: Q04DX003 (ip), vehicle: saline) 98 % of control; (endpoint: median survival time, dose: 0.78 mg/kg/injection, schedule: Q04DX003 (ip), vehicle: saline with Tween-80) 107 % of control; (endpoint: median survival time, dose: 0.78 mg/kg/injection, schedule: Q04DX003 (ip), vehicle: saline) 100 % of control; (endpoint: median survival time, dose: 1.25 mg/kg/injection, schedule: Q04DX003 (ip), vehicle: saline) 98 % of control; (endpoint: median survival time, dose: 1.56 mg/kg/injection, schedule: Q04DX003 (ip), vehicle: saline with Tween-80) 107 % of control. Besides, the T/C is 101 % of control (endpoint: median survival time, dose: 1.56 mg/kg/injection, schedule: Q04DX003 (ip), vehicle: saline); 98 % of control (endpoint: median survival time, dose: 2.5 mg/kg/injection, schedule: Q04DX003 (ip), vehicle: saline); 110 % of control (endpoint: median survival time, dose: 3.12 mg/kg/injection, schedule: Q04DX003 (ip), vehicle: saline with Tween-80); 107 % of control (endpoint: median survival time, dose: 3.12 mg/kg/injection, schedule: Q04DX003 (ip), vehicle: saline); 102 % of control (endpoint: median survival time, dose: 5.0 mg/kg/injection, schedule: Q04DX003 (ip), vehicle: saline); 118 % of control (endpoint: median survival time, dose: 6.25 mg/kg/injection, schedule: Q04DX003 (ip), vehicle: saline with Tween-80). Besides, the T/C is 103 % of control (endpoint: median survival time, dose: 6.25 mg/kg/injection, schedule: Q04DX003 (ip), vehicle: saline); 111 % of control (endpoint: median survival time, dose: 10.0 mg/kg/injection, schedule: Q04DX003 (ip), vehicle: saline); 107 % of control (endpoint: median survival time, dose: 12.5 mg/kg/injection, schedule: Q04DX003 (ip), vehicle: saline); 111 % of control (endpoint: median survival time, dose: 20.0 mg/kg/injection, schedule: Q04DX003 (ip), vehicle: saline); 167 % of control (endpoint: median survival time, dose: 25.0 mg/kg/injection, schedule: Q04DX003 (ip), vehicle: saline with Tween-80); 123 % of control (endpoint: median survival time, dose: 25.0 mg/kg/injection, schedule: Q04DX003 (ip), vehicle: saline).

Take `CCOC(=O)c1ccc(NC(=O)CCOc2ccccc2)cc1`: the T/C was 92 % of control and 101 % of control under setting [9]; 91 % of control under setting [1]; 86 % of control under setting [4]; 92 % of control and 96 % of control under setting [10]; 86 % of control and 87 % of control under setting [2]; 86 % of control under setting [5]. Moreover, the T/C was 89 % of control and 95 % of control under setting [11]; 94 % of control under setting [3].

Regarding `N#Cc1cnoc1N`, the T/C is, setting by setting: under setting [9], 112 % of control; under setting [10], 114 % of control; under setting [11], 109 % of control.

Take `FC(F)(F)C1(C(F)(F)F)C/C(=N/Nc2ccccc2)CO1`: the T/C was 101 % of control (endpoint: mean survival time, dose: 100.0 mg/kg/injection, schedule: Q04DX003 (ip), vehicle: other); 101 % of control (endpoint: mean survival time, dose: 200.0 mg/kg/injection, schedule: Q04DX003 (ip), vehicle: other); 101 % of control (endpoint: mean survival time, dose: 400.0 mg/kg/injection, schedule: Q04DX003 (ip), vehicle: other).

For `COc1cc2ccc3c[n+](C)ccc3c2cc1OC`, the T/C (endpoint: mean survival time, dose: 25.0 mg/kg/injection, schedule: Q01DX009 (ip), vehicle: water) is 102 % of control and 100 % of control; the T/C (endpoint: mean survival time, dose: 50.0 mg/kg/injection, schedule: Q01DX009 (ip), vehicle: water) is 107 % of control and 104 % of control; the T/C (endpoint: mean survival time, dose: 100.0 mg/kg/injection, schedule: Q01DX009 (ip), vehicle: water) is 94 % of control and 114 % of control.

With `CC(=O)Nc1ccc(N=CN(C)C)cc1`, the T/C is, setting by setting: under setting [4], 95 % of control; under setting [5], 95 % of control; under setting [6], 112 % of control.

With `Cc1cc(Cl)ccc1NC(=O)SCc1ccc(Cl)cc1`, the T/C is 95 % of control (endpoint: mean survival time, dose: 50.0 mg/kg/injection, schedule: Q01DX009 (ip), vehicle: saline with Tween-80); 100 % of control under setting [9]; 103 % of control under setting [10].

Consider `C[N+](C)(CC(=O)Nc1cccc(C(F)(F)F)c1)CC(=O)Nc1cccc(C(F)(F)F)c1`, for which the T/C runs as follows: (endpoint: mean survival time, dose: 25.0 mg/kg/injection, schedule: Q04DX003 (ip), vehicle: saline with Tween-80) 100 % of control; (endpoint: mean survival time, dose: 50.0 mg/kg/injection, schedule: Q04DX003 (ip), vehicle: saline with Tween-80) 88 % of control.

In the case of `COCCNC(=O)Nc1cccc2c1CCCC2`, the T/C by setting is: under setting [4], 106 % of control; under setting [5], 97 % of control; under setting [6], 91 % of control.
